These compounds were tested on HSV-2 G strain (assay: HSV-2 Antiviral Assay (Vero cells, cell viability)). Conditions: Human alphaherpesvirus 2, Vero, 120 h, Vero cells, 160 TCID50 HSV-2 G strain, 5 days, cell viability.
Assay type: cell-based
Description: Vero cells were cultured in Dulbecco's Modified Eagle Medium (DMVEM) supplemented with […] and 100 units/mL penicillin and streptomycin. The cells were passaged 2-3 times per week to maintain sub-confluent densities.
Vero cells were seeded into 96-well plates at a density of 1.0×10^4 cells per well and allowed to attach overnight. Following attachment, the media was replaced with 50 μL of infection medium (DMEM supplemented with 2% fetal bovine serum and 100 units/mL penicillin and streptomycin). A Tecan D300e digital dispenser was then used to add compounds to the culture using an 8-point 3-fold serial dilution format. The DMSO concentration was normalized to 0.5% for all treatments. Following compound addition, 50 μL of infection medium containing 160 TCID50 HSV-2 G strain was added to the cells and incubated at 37° C. for 5 days. After the incubation, 10 μL/well of WST-8 chromogenic reagent was added and the plates incubated at 37° C. for 3 hours. Following the incubation, cell viability was quantified by measuring the absorbance at 460 nm and 620 nm using a Tecan Infinite M1000 Pro plate reader.

`Cc1nc(N2CCCN(c3ccc(-c4cc(F)cc(F)c4O)cc3)C2=O)sc1S(N)(=O)=O` [Compound 215] and `COCc1c(F)cc(F)cc1-c1ccc(N2CCCN(c3nc(C)c(S(N)(=O)=O)s3)C2=O)cc1` [Compound 221] cannot be ordered by EC50: < 0.1 µM for the first, < 0.1 µM for the second.

`Cc1nc(N2CCCN(c3ccc(-c4cc(F)cc(C(F)F)c4F)cc3)C2=O)sc1S(N)(=O)=O` [Compound 217] and `Cc1nc(N2CCCN(c3ccc(-c4cc(F)cc(C(F)F)c4)cc3)C2=O)sc1S(N)(=O)=O` [Compound 222] cannot be ordered by EC50: < 0.1 µM for the first, < 0.1 µM for the second.

`COc1cc(Cl)c(F)c(-c2ccc(N3CCCN(c4nc(C)c(S(N)(=O)=O)s4)C3=O)cc2)c1` [Compound 218] and `Cc1cc(Cl)c(F)c(-c2ccc(N3CCCN(c4nc(C)c(S(N)(=O)=O)s4)C3=O)cc2)n1` [Compound 236] cannot be ordered by EC50: < 0.1 µM for the first, < 0.1 µM for the second.

First: Cc1nc(N2CCCN(c3ccc(-c4cc(F)ccc4SC(F)(F)F)cc3)C2=O)sc1S(N)(=O)=O [Compound 219]
Second: CSc1ccc(F)cc1-c1ccc(N2CCCN(c3nc(C)c(S(N)(=O)=O)s3)C2=O)cc1 [Compound 223]
The EC50 of the first is higher: 0.1 to 1 µM for the first, < 0.1 µM for the second.

`Cc1nc(N2CCCN(c3ccc(-c4ccccc4C#CC4CC4)cc3)C2=O)sc1S(N)(=O)=O` [Compound 220] and `Cc1nc(N2CCCN(c3ccc(-c4cccc5cnsc45)cc3)C2=O)sc1S(N)(=O)=O` [Compound 258] cannot be ordered by EC50: < 0.1 µM for the first, < 0.1 µM for the second.

Compared with `Cc1nc(N2CCCN(c3ccc(-c4cc(F)ccc4C(C)(F)F)cc3)C2=O)sc1S(N)(=O)=O` [Compound 225], `Cc1nc(N2CCCN(c3ccc(-c4cc(C(C)(F)F)cs4)cc3)C2=O)sc1S(N)(=O)=O` [Compound 241] is higher in EC50: < 0.1 µM for the first, 1 to 5 µM for the second.

`COc1c(F)cc(C#N)cc1-c1ccc(N2CCCN(c3nc(C)c(S(N)(=O)=O)s3)C2=O)cc1` [Compound 226] and `Cc1nc(N2CCCN(c3ccc(-c4cc(C#N)cc5ncsc45)cc3)C2=O)sc1S(N)(=O)=O` [Compound 278] fall in the same range of EC50: 0.1 to 1 µM for the first, 0.1 to 1 µM for the second.

`Cc1nc(N2CCCN(c3ccc(-c4cccc(-c5cscn5)c4)cc3)C2=O)sc1S(N)(=O)=O` [Compound 229] and `Cc1nc(N2CCCN(c3ccc(-c4cccc5sccc45)cc3)C2=O)sc1S(N)(=O)=O` [Compound 285] cannot be ordered by EC50: < 0.1 µM for the first, < 0.1 µM for the second.

`Cc1nc(N2CCCN(c3ccc(-c4cc(-c5cncs5)ccc4F)cc3)C2=O)sc1S(N)(=O)=O` [Compound 230] and `Cc1nc(N2CCCN(c3ccc(-c4cc(F)ccc4-c4cncs4)cc3)C2=O)sc1S(N)(=O)=O` [Compound 231] fall in the same range of EC50: 0.1 to 1 µM for the first, 0.1 to 1 µM for the second.

`Cc1nc(N2CCCN(c3ccc(-c4ncccc4C(F)(F)F)cc3)C2=O)sc1S(N)(=O)=O` [Compound 232] and `Cc1nc(N2CCCN(c3ccc(-c4cc(C(F)(F)F)ccn4)cc3)C2=O)sc1S(N)(=O)=O` [Compound 240] fall in the same range of EC50: 0.1 to 1 µM for the first, 0.1 to 1 µM for the second.

First: COc1ccncc1-c1ccc(N2CCCN(c3nc(C)c(S(N)(=O)=O)s3)C2=O)cc1 [Compound 233]
Second: COc1ncc(F)cc1-c1ccc(N2CCCN(c3nc(C)c(S(N)(=O)=O)s3)C2=O)cc1 [Compound 239]
The EC50 of the first is higher: 0.1 to 1 µM for the first, < 0.1 µM for the second. The second is the more potent here.

`Cc1nc(N2CCCN(c3ccc(-c4cc(Cl)c(Cl)cn4)cc3)C2=O)sc1S(N)(=O)=O` [Compound 234] and `Cc1cc(F)cc(-c2ccc(N3CCCN(c4nc(C)c(S(N)(=O)=O)s4)C3=O)cc2)n1` [Compound 237] cannot be ordered by EC50: < 0.1 µM for the first, < 0.1 µM for the second.

Compared with `Cc1cc(O)cc(-c2ccc(N3CCCN(c4nc(C)c(S(N)(=O)=O)s4)C3=O)cc2)n1` [Compound 238], `Cc1nc2cc(F)cc(-c3ccc(N4CCCN(c5nc(C)c(S(N)(=O)=O)s5)C4=O)cc3)c2s1` [Compound 256] is lower in EC50: 1 to 5 µM for the first, < 0.1 µM for the second. The second is the more potent here.

Compared with `Cc1nc(N2CCCN(c3ccc(-c4cc(C(F)(F)F)cc5nsnc45)cc3)C2=O)sc1S(N)(=O)=O` [Compound 244], `Cc1nc(N2CCCN(c3ccc(-c4cc(C(F)(F)F)cc5nn(C)cc45)cc3)C2=O)sc1S(N)(=O)=O` [Compound 289] is higher in EC50: < 0.1 µM for the first, 1 to 5 µM for the second. The first is the more potent here.

`Cc1nc(N2CCCN(c3ccc(-c4cc(C(F)(F)F)cc5c4ccn5C)cc3)C2=O)sc1S(N)(=O)=O` [Compound 246] and `Cc1nc(N2CCCN(c3ccc(-c4cc(C(F)(F)F)cc5c4cnn5C)cc3)C2=O)sc1S(N)(=O)=O` [Compound 287] cannot be ordered by EC50: < 0.1 µM for the first, < 0.1 µM for the second.

`Cc1nc(N2CCCN(c3ccc(-c4cccc5c(C)cnn45)cc3)C2=O)sc1S(N)(=O)=O` [Compound 247] and `Cc1nc(N2CCCN(c3ccc(-c4cccc5ccnn45)cc3)C2=O)sc1S(N)(=O)=O` [Compound 248] cannot be ordered by EC50: < 0.1 µM for the first, < 0.1 µM for the second.

First: Cc1nc(N2CCCN(c3ccc(-c4cccc5c4OCCO5)cc3)C2=O)sc1S(N)(=O)=O [Compound 249]
Second: Cc1nc(N2CCCN(c3ccc(-c4cccc5c4C(F)(F)CCO5)cc3)C2=O)sc1S(N)(=O)=O [Compound 266]
The EC50 of the first is lower: < 0.1 µM for the first, 0.1 to 1 µM for the second. The first is the more potent here.

`Cc1nc(N2CCCN(c3ccc(-c4cccc5c4cc(C)n5C)cc3)C2=O)sc1S(N)(=O)=O` [Compound 250] and `Cc1nc(N2CCCN(c3ccc(-c4cccc5c(C)csc45)cc3)C2=O)sc1S(N)(=O)=O` [Compound 275] cannot be ordered by EC50: < 0.1 µM for the first, < 0.1 µM for the second.

Compared with `COc1cc(-c2ccc(N3CCCN(c4nc(C)c(S(N)(=O)=O)s4)C3=O)cc2)c2scnc2c1` [Compound 252], `Cc1nc(N2CCCN(c3ccc(-c4cncc5ncsc45)cc3)C2=O)sc1S(N)(=O)=O` [Compound 269] is higher in EC50: < 0.1 µM for the first, 0.1 to 1 µM for the second.

First: Cc1nc(N2CCCN(c3ccc(-c4cc(F)cc5nc(C6CC6)sc45)cc3)C2=O)sc1S(N)(=O)=O [Compound 253]
Second: Cc1nc(N2CCCN(c3ccc(-c4cc(F)cc5nc(C#N)sc45)cc3)C2=O)sc1S(N)(=O)=O [Compound 279]
The EC50 of the first is lower: < 0.1 µM for the first, 0.1 to 1 µM for the second.

First: Cc1nc(N2CCCN(c3ccc(-c4cc(F)cc5cc(C(N)=O)sc45)cc3)C2=O)sc1S(N)(=O)=O [Compound 254]
Second: Cc1nc(N2CCCN(c3ccc(-c4cc(F)cc5cc(C#N)sc45)cc3)C2=O)sc1S(N)(=O)=O [Compound 276]
The EC50 of the first is higher: 0.1 to 1 µM for the first, < 0.1 µM for the second.

First: Cc1nc(N2CCCN(c3ccc(-c4cc(F)cc5nc(C(F)(F)F)sc45)cc3)C2=O)sc1S(N)(=O)=O [Compound 257]
Second: Cc1nc(N2CCCN(c3ccc(-c4cc(F)cc5cc(C(C)(C)F)sc45)cc3)C2=O)sc1S(N)(=O)=O [Compound 284]
The EC50 of the first is lower: < 0.1 µM for the first, 0.1 to 1 µM for the second.

Compared with `Cc1nc(N2CCCN(c3ccc(-c4nccc5ncsc45)cc3)C2=O)sc1S(N)(=O)=O` [Compound 260], `Cc1nc(N2CCCN(c3ccc(-c4ccnc5ncsc45)cc3)C2=O)sc1S(N)(=O)=O` [Compound 272] is higher in EC50: < 0.1 µM for the first, 1 to 5 µM for the second. The first is the more potent here.

`Cc1nc(N2CCCN(c3ccc(-c4nccc5c4cnn5C)cc3)C2=O)sc1S(N)(=O)=O` [Compound 261] and `Cc1nc(N2CCCN(c3ccc(-c4cncc5c4cnn5C)cc3)C2=O)sc1S(N)(=O)=O` [Compound 288] fall in the same range of EC50: 0.1 to 1 µM for the first, 0.1 to 1 µM for the second.

Compared with `Cc1nc(N2CCCN(c3ccc(-c4nccn5cncc45)cc3)C2=O)sc1S(N)(=O)=O` [Compound 262], `Cc1nc(N2CCCN(c3ccc(-c4cccn5nncc45)cc3)C2=O)sc1S(N)(=O)=O` [Compound 263] is lower in EC50: 1 to 5 µM for the first, 0.1 to 1 µM for the second. The second is the more potent here.

Compared with `Cc1nc(N2CCCN(c3ccc(-c4cccc5c4C(F)(F)CO5)cc3)C2=O)sc1S(N)(=O)=O` [Compound 264], `Cc1nc(N2CCCN(c3ccc(-c4cccc5c4OCCC5(F)F)cc3)C2=O)sc1S(N)(=O)=O` [Compound 267] is higher in EC50: < 0.1 µM for the first, 0.1 to 1 µM for the second. The first is the more potent here.

`Cc1nc(N2CCCN(c3ccc(-c4cccc5cc(N)ncc45)cc3)C2=O)sc1S(N)(=O)=O` [Compound 268] and `Cc1nc(N2CCCN(c3ccc(-c4nccc5ccsc45)cc3)C2=O)sc1S(N)(=O)=O` [Compound 270] cannot be ordered by EC50: < 0.1 µM for the first, < 0.1 µM for the second.

Compared with `Cc1nc(N2CCCN(c3ccc(-c4cncc5nn(C)cc45)cc3)C2=O)sc1S(N)(=O)=O` [Compound 271], `Cc1nc(N2CCCN(c3ccc(-c4cc(F)cc5c4c(C)cn5C)cc3)C2=O)sc1S(N)(=O)=O` [Compound 291] is lower in EC50: 1 to 5 µM for the first, < 0.1 µM for the second. The second is the more potent here.

First: Cc1nc(N2CCCN(c3ccc(-c4cc(C(C)(F)F)cc5c4OCO5)cc3)C2=O)sc1S(N)(=O)=O [Compound 273]
Second: Cc1nc(N2CCCN(c3ccc(-c4cc(C(F)(F)F)cc5c4c(C#N)cn5C)cc3)C2=O)sc1S(N)(=O)=O [Compound 290]
The EC50 of the first is lower: 0.1 to 1 µM for the first, 1 to 5 µM for the second.

Compared with `Cc1nc(N2CCCN(c3ccc(-c4cc(F)cc5c(C)c(C#N)sc45)cc3)C2=O)sc1S(N)(=O)=O` [Compound 280], `Cc1nc(N2CCCN(c3ccc(-c4cc(F)cc5c(C)c(C(C)(C)O)sc45)cc3)C2=O)sc1S(N)(=O)=O` [Compound 282] is lower in EC50: 1 to 5 µM for the first, 0.1 to 1 µM for the second.

`Cc1nc(N2CCCN(c3ccc(-c4cc(F)cc5cc(C(C)(C)O)sc45)cc3)C2=O)sc1S(N)(=O)=O` [Compound 281] and `Cc1nc(N2CCCN(c3ccc(-c4cc(F)cc5c(C)c(C(C)(C)F)sc45)cc3)C2=O)sc1S(N)(=O)=O` [Compound 283] fall in the same range of EC50: 0.1 to 1 µM for the first, 0.1 to 1 µM for the second.

Compared with `Cc1nc(N2CCCN(c3ccc(-c4ccc(C#N)c5nsnc45)cc3)C2=O)sc1S(N)(=O)=O` [Compound 286], `Cc1nc(N2CCCN(c3ccc(-c4cc(F)cc5c4c(C#N)cn5C)cc3)C2=O)sc1S(N)(=O)=O` [Compound 294] is lower in EC50: 1 to 5 µM for the first, 0.1 to 1 µM for the second.

First: Cc1nc(N2CCCN(c3ccc(-c4cc(C(F)(F)F)cc5c4c(CO)cn5C)cc3)C2=O)sc1S(N)(=O)=O [Compound 292]
Second: Cc1nc(N2CCCN(c3ccc(-c4cc(F)cc5c4c(F)cn5C)cc3)C2=O)sc1S(N)(=O)=O [Compound 295]
The EC50 of the first is higher: 1 to 5 µM for the first, < 0.1 µM for the second. The second is the more potent here.

With `COc1ccc(-c2ccc(N3CCCN(c4nc(C)c(S(N)(=O)=O)s4)C3=O)cc2)c2ccn(C)c12` [Compound 296] the EC50 was 0.1 to 1 µM.
